Read-outs that look alike come from different tables or passages of the source.

Assay [1] addresses Mcl-1 (Homo sapiens (Human), UniProt Q07820). Description: Fluorescence polarization anisotropy (FPA) competition assay, FITC-Bak or FITC-Bim BH3 peptide. It counts as binding. The conditions noted are these: read-out: Ki for Inhibition of Mcl-1 by FPA assay. (In general: In fluorescence polarisation assays a small probe gives low polarisation when free and higher when bound to something large.)

The subject of assay [2] is H929 human cancer cell lines. The experiment in a line: Cellular viability / proliferation (Cell TiterGlo, 72 h). It counts as cell-based. In outline:
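Plating is at 1,000 cells/well in 10% FBS medium; after 24 h, compound is added as a 2-fold series starting at 50 μM with under 1% DMSO.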
A general note: ATP-based viability assays read luminescence as a measure of living cells.

The mark [3] stands for this setting: Homo sapiens, NCI-H929, 72 h, read-out: GI50 on cellular proliferation of H929 human cancer cell lines, H929 cells, 72 h, Cell TiterGlo, 10% FBS.

Mcl-1, sequence (Q07820 172-327): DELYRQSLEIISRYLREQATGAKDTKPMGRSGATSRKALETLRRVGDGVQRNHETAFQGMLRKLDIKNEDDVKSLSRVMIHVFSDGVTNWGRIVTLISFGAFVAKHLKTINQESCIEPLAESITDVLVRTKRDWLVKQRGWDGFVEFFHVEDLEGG

In general, Ki refers to the dissociation constant of the complex between target and ligand, obtained from inhibition or displacement. Turning to `Cc1cc(OCCCc2c3n(c4c(-c5c(C)nn(CCN6CCCC6)c5C)c(Cl)ccc24)[C@H](C)CN(c2cn(C)c4ccc(C(=O)O)cc24)C3=O)cc(C)c1Cl` [Example 263, (R)-3-(7-chloro-10-(3-(4-chloro-3,5-dimethylphenoxy)propyl)-6-(3,5-dimethyl-1-(2-(pyrrolidin-1-yl)ethyl)-1H-pyrazol-4-yl)-4-methyl-1-oxo-3,4-dihydropyrazino[1,2-a]indol-2(1H)-yl)-1-methyl-1H-indole-5-carboxylic acid], the Ki in assay [1] came out at 1.8 nM. Further, the GI50 in assay [2] (setting [3]) worked out at 270 nM.
In the case of `Cc1ccnc(Cn2c(C(=O)O)cc3cc(OC(F)(F)F)cc(N4C[C@@H](C)n5c(c(CCCOc6cc(C)c(Cl)c(C)c6)c6ccc(Cl)c(-c7c(C)nn(C)c7C)c65)C4=O)c32)c1` [Example 474, (R)-7-(7-Chloro-10-(3-(4-chloro-3,5-dimethylphenoxy)propyl)-4-methyl-1-oxo-6-(1,3,5-trimethyl-1H-pyrazol-4-yl)-3,4-dihydropyrazino[1,2-a]indol-2(1H)-yl)-1-((4-methylpyridin-2-yl)methyl)-5-(trifluoromethoxy)-1H-indole-2-carboxylic acid], the Ki in assay [1] was determined as 17 nM. Further, in assay [2] (setting [3]), the GI50 came out at 1200 nM.
The like results for `Cc1cc(OCCCc2c3n(c4c(-c5c(C)nn(C)c5C)c(Cl)ccc24)[C@H](C)CN(c2cn(C)c4ccc(-c5nnn(C)n5)cc24)C3=O)cc(C)c1Cl` [Example 350, (R)-7-Chloro-10-(3-(4-chloro-3,5-dimethylphenoxy)propyl)-4-methyl-2-(1-methyl-5-(2-methyl-2H-tetrazol-5-yl)-1H-indol-3-yl)-6-(1,3,5-trimethyl-1H-pyrazol-4-yl)-3,4-dihydropyrazino[1,2-a]indol-1(2H)-one] were, in that order, less than 1 nM and 300 nM.
The like results for `Cc1cc(N2C[C@@H](C)n3c(c(CCCOc4cc(C)c(Cl)c(C)c4)c4ccc(Cl)c(-c5c(C)n[nH]c5C)c43)C2=O)c2c(c1)cc(C(=O)O)n2C` [Example 400, (R)-7-(7-chloro-10-(3-(4-chloro-3,5-dimethylphenoxy)propyl)-6-(3,5-dimethyl-1H-pyrazol-4-yl)-4-methyl-1-oxo-3,4-dihydropyrazino[1,2-a]indol-2(1H)-yl)-1,5-dimethyl-1H-indole-2-carboxylic acid] were, in that order, 1.4 nM and 430 nM.
For the compound `Cc1cc(OCCCc2c3n(c4c(-c5c(C)nn(C)c5C)c(Cl)ccc24)[C@H](C)CN(c2cccc4cc(C(=O)O)n(Cc5cncnc5)c24)C3=O)cc(C)c1Cl` [Example 311, 7-[(4R)-7-chloro-10-[3-(4-chloro-3,5-dimethyl-phenoxy)propyl]-4-methyl-1-oxo-6-(1,3,5-trimethylpyrazol-4-yl)-3,4-dihydropyrazino[1,2-a]indol-2-yl]-1-(pyrimidin-5-ylmethyl)indole-2-carboxylic acid], in assay [1], the inhibition constant (Ki) was less than 1 nM. Further, the GI50 in assay [2] (setting [3]) is 3400 nM.
The like results for `COCCn1c(C(=O)O)cc2c(N3C[C@@H](C)n4c(c(CCCOc5cc(C)c(Cl)c(C)c5)c5ccc(Cl)c(-c6c(C)nn(C)c6C)c54)C3=O)cccc21` [Example 353, (R)-4-(7-Chloro-10-(3-(4-chloro-3,5-dimethylphenoxy)propyl)-4-methyl-1-oxo-6-(1,3,5-trimethyl-1H-pyrazol-4-yl)-3,4-dihydropyrazino[1,2-a]indol-2(1H)-yl)-1-(2-methoxyethyl)-1H-indole-2-carboxylic acid] were, in that order, 2.1 nM and 2900 nM.
In the case of `Cc1cc(OCCCc2c3n(c4c(-c5c(C)nc(N6CCN(C)CC6)nc5C)c(Cl)ccc24)CCCN(c2cn(C)c4ccc(C(=O)O)cc24)C3=O)cc(C)c1Cl` [Example 228, 3-(8-Chloro-11-(3-(4-chloro-3,5-dimethylphenoxy)propyl)-7-(4,6-dimethyl-2-(4-methylpiperazin-1-yl)pyrimidin-5-yl)-1-oxo-4,5-dihydro-1H-[1,4]diazepino[1,2-a]indol-2(3H)-yl)-1-methyl-1H-indole-5-carboxylic acid], the Ki in assay [1] came out at 1.6 nM. In assay [2] (setting [3]), the GI50 came to 780 nM.
Regarding `Cc1cc(OCCCc2c3n(c4c(-c5c(C)n[nH]c5C)c(Cl)ccc24)[C@H](C)CN(c2cc(C(=O)O)c4ccn(C)c4c2)C3=O)cc(C)c1Cl` [Example 70, (R)-6-(7-chloro-10-(3-(4-chloro-3,5-dimethylphenoxy)propyl)-6-(3,5-dimethyl-1H-pyrazol-4-yl)-4-methyl-1-oxo-3,4-dihydropyrazino[1,2-a]indol-2(1H)-yl)-1-methyl-1H-indole-4-carboxylic acid], the Ki in assay [1] was less than 1 nM. For the same compound, the GI50 in assay [2] (setting [3]) was found to be 2400 nM.
The like results for `CC[C@@H]1Cn2c(c(CCCOc3cc(C)c(Cl)c(C)c3)c3ccc(Cl)c(-c4c(C)nn(C)c4C)c32)C(=O)N1c1cc(C(=O)O)c2c(ccn2C)c1` [Example 41, (R)-5-(7-chloro-10-(3-(4-chloro-3,5-dimethylphenoxy)propyl)-3-ethyl-1-oxo-6-(1,3,5-trimethyl-1H-pyrazol-4-yl)-3,4-dihydropyrazino[1,2-a]indol-2(1H)-yl)-1-methyl-1H-indole-7-carboxylic acid] were, in that order, 1.8 nM and 1200 nM.
Take `Cc1cc(OCCCc2c3n(c4c(-c5c(C)n[nH]c5C)c(Cl)ccc24)[C@H](C)CN(c2cc(C(=O)O)cc4c2ccn4C)C3=O)cc(C)c1Cl` [Example 71, (R)-4-(7-chloro-10-(3-(4-chloro-3,5-dimethylphenoxy)propyl)-6-(3,5-dimethyl-1H-pyrazol-4-yl)-4-methyl-1-oxo-3,4-dihydropyrazino[1,2-a]indol-2(1H)-yl)-1-methyl-1H-indole-6-carboxylic acid]: in assay [1], the Ki was less than 1 nM. Besides, the GI50 in assay [2] (setting [3]) amounted to 3300 nM.
On to `Cc1cc(OCCCc2c3n(c4c(-c5c(C)nn(C)c5C)c(Cl)ccc24)[C@H](C)CN(c2cccc4c(C(=O)O)cn(C)c24)C3=O)cc(C)c1Cl` [Example 214, (R)-7-(7-chloro-10-(3-(4-chloro-3,5-dimethylphenoxy)propyl)-4-methyl-1-oxo-6-(1,3,5-trimethyl-1H-pyrazol-4-yl)-3,4-dihydropyrazino[1,2-a]indol-2(1H)-yl)-1-methyl-1H-indole-3-carboxylic acid], for which the Ki in assay [1] was less than 1 nM. For the same compound, in assay [2] (read-out: GI50 on cellular proliferation of H929 human cancer cell lines, H929 cells, 72 h, Cell TiterGlo, 10% FBS), the GI50 is 380 nM.
For the compound `Cc1cc(OCCCc2c3n(c4c(-c5c(C)nn(C)c5C)c(Cl)ccc24)[C@H](C)CN(c2cn(C)c4cc(C(=O)O)ccc24)C3=O)cc(C)c1Cl` [Example 88, (R)-3-(7-Chloro-10-(3-(4-chloro-3,5-dimethylphenoxy)propyl)-4-methyl-1-oxo-6-(1,3,5-trimethyl-1H-pyrazol-4-yl)-3,4-dihydropyrazino[1,2-a]indol-2(1H)-yl)-1-methyl-1H-indole-6-carboxylic acid], in assay [1], the Ki is less than 1 nM. For the same compound, in assay [2] (setting [3]), the GI50 is 290 nM.
As for `Cc1cc(N2C[C@@H](C)n3c(c(CCCOc4cc(C)c(Cl)c(C)c4)c4ccc(Cl)c(-c5c(C)nn(C)c5C)c43)C2=O)c2c(c1)cc(C(=O)O)n2C` [Example 201, (R)-7-(7-Chloro-10-(3-(4-chloro-3,5-dimethylphenoxy)propyl)-4-methyl-1-oxo-6-(1,3,5-trimethyl-1H-pyrazol-4-yl)-3,4-dihydropyrazino[1,2-a]indol-2(1H)-yl)-1,5-dimethyl-1H-indole-2-carboxylic acid], in assay [1], the Ki is less than 1 nM. For the same compound, in assay [2] (setting [3]), the GI50 was less than 200 nM.
Taken in the same sequence, the figures for `Cc1cc(OCCCc2c3n(c4c(-c5c(C)nn(C)c5C)c(Cl)ccc24)CCCN(c2cc(C(=O)O)c4c(Br)cn(C)c4c2)C3=O)cc(C)c1Cl` [Example 2, 3-Bromo-6-(8-chloro-11-(3-(4-chloro-3,5-dimethylphenoxy)propyl)-1-oxo-7-(1,3,5-trimethyl-1H-pyrazol-4-yl)-4,5-dihydro-1H-[1,4]diazepino[1,2-a]indol-2(3H)-yl)-1-methyl-1H-indole-4-carboxylic acid] were less than 1 nM and 8300 nM.
As for `Cc1cc(OCCCc2c3n(c4c(-c5c(C)ncnc5C)c(Cl)ccc24)[C@H](C)CN(c2cccc4c(C(=O)O)cn(C)c24)C3=O)cc(C)c1Cl` [Example 168, 7-[(4R)-7-chloro-10-[3-(4-chloro-3,5-dimethyl-phenoxy)propyl]-6-(4,6-dimethylpyrimidin-5-yl)-4-methyl-1-oxo-3,4-dihydropyrazino[1,2-a]indol-2-yl]-1-methyl-indole-3-carboxylic acid], in assay [1], the Ki was found to be 1.1 nM. Besides, in assay [2] (setting [3]), the GI50 was 1000 nM.
`Cc1cc(OCCCc2c3n(c4c(-c5c(C)nn(C)c5C)c(Cl)ccc24)[C@H](C)CN(c2cn(C)c4c(-c5nnn[nH]5)cccc24)C3=O)cc(C)c1Cl` [Example 258, (R)-7-Chloro-10-(3-(4-chloro-3,5-dimethylphenoxy)propyl)-4-methyl-2-(1-methyl-7-(1H-tetrazol-5-yl)-1H-indol-3-yl)-6-(1,3,5-trimethyl-1H-pyrazol-4-yl)-3,4-dihydropyrazino[1,2-a]indol-1(2H)-one]: the Ki in assay [1] is less than 1 nM. The GI50 in assay [2] (setting [3]) is 3600 nM.
Regarding `Cc1cc(OCCCc2c3n(c4c(-c5c(C)ncnc5C)c(C)ccc24)[C@H](C)CN(c2cccc4cc(C(=O)O)n(Cc5ccccn5)c24)C3=O)cc(C)c1Cl` (atropisomer, axis not shown) [Example 271, (R)-7-(10-(3-(4-chloro-3,5-dimethylphenoxy)propyl)-6-(4,6-dimethylpyrimidin-5-yl)-4,7-dimethyl-1-oxo-3,4-dihydropyrazino[1,2-a]indol-2(1H)-yl)-1-(pyridin-2-ylmethyl)-1H-indole-2-carboxylic acid], in assay [1], the Ki is less than 1 nM. The GI50 in assay [2] (setting [3]) is 260 nM.

The record behind these values is patent US11596639B2, “Substituted indole Mcl-1 inhibitors” (Vanderbilt University, priority 2016, dated 2023).
